# Measured values: paper PMC8597116 (Clinical Pharmacology in Drug Development, 2021)
# “And” between values parts separate entries of the source, which are not always exact repeats. Equal entries are not always repeated. Where two headings read alike, the source gives them in different places.
# What was measured:
# [1] = for MPR AUC0‐t (metabolite‐to‐parent ratio) / MPR AUCinf (metabolite‐to‐parent ratio) / MPR Cmax (metabolite‐to‐parent, 5‐HVLX‐gluc to viloxazine, ratio): adjusted for molecular weights; for AUC0‐t, geometric mean / AUCinf, geometric mean / Cmax, geometric mean: geometric least‐squares mean of log‐transformed values
# [2] = Steady-state plasma pharmacokinetics of paroxetine, healthy adults; type: in vivo, human
# [3] = Safety monitoring: treatment-related adverse events in healthy adults; type: in vivo, human; settings: n = 22 per treatment period
# clinical = settings: human, plasma, oral
# CYP1A2 = settings: cited from earlier work
# CYP2B6 = settings: read-out: CYP2B6 IC50; cited from earlier work
# CYP2D6 [4] = settings: read-out: CYP2D6 IC50; cited from earlier work
# CYP3A4/5 = settings: read-out: CYP3A4/5 IC50; two values given; cited from earlier work
# CYP2C8 = settings: read-out: CYP2C8 IC50; cited from earlier work
# CYP2C9 = settings: read-out: CYP2C9 IC50; cited from earlier work
# CYP2C19 = settings: read-out: CYP2C19 IC50; cited from earlier work
# CYP2D6 [5] = settings: cited from earlier work
# [6] = Combination (period 3), mean ± SD
# [7] = SPN‐812 alone (period 1), 700 mg single dose, plasma, mean ± SD
# [8] = SPN‐812 alone (period 1), mean ± SD
# [9] = combination versus SPN‐812 alone
# [10] = geometric LS mean ratio, period 3/period 1
# [11] = paroxetine 20 mg QD coadministration
# [12] = day 13, paroxetine 20 mg once daily, mean ± SD
compound,measurement,setting,value
"CCOc1ccc(O[C@@H]2O[C@H](C(=O)O)[C@@H](O)[C@H](O)[C@H]2O)cc1OCC1CNCCO1 (stereo partly drawn) [5‐HVLX‐gluc, 5‐hydroxyviloxazine glucuronide]",MPR AUC0‐t (metabolite‐to‐parent ratio),[1]; [6],0.31 ± 0.08 (25.2%)
same,MPR AUCinf (metabolite‐to‐parent ratio),[1]; [6],0.31 ± 0.08 (25.1%)
same,"MPR Cmax (metabolite‐to‐parent, 5‐HVLX‐gluc to viloxazine, ratio)",[1]; [6],0.33 ± 0.06 (19.2%)
same,"AUC0‐t, geometric mean",[1]; Combination (period 3),60.1
same,"AUCinf, geometric mean",[1]; Combination (period 3),60.3
same,"Cmax, geometric mean",[1]; Combination (period 3),2.8
same,AUC0‐t,[1]; [7],70.5 ± 19.6 (27.8%) μg·h/mL
same,AUCinf,[1]; [7],70.7 ± 19.7 (27.9%) μg·h/mL
same,Cmax,[1]; [7],3.5 ± 0.8 (24.2%) μg/mL
same,t1/2,[1]; [7],5.7 ± 1.7 (29.6%) h
same,MPR AUC0‐t (metabolite‐to‐parent ratio),[1]; [8],0.49 ± 0.15 (31.1%)
same,MPR AUCinf (metabolite‐to‐parent ratio),[1]; [8],0.48 ± 0.15 (31.5%)
same,"MPR Cmax (metabolite‐to‐parent, 5‐HVLX‐gluc to viloxazine, ratio)",[1]; [8],0.47 ± 0.12 (27.4%)
same,"AUC0‐t, geometric mean",[1]; SPN‐812 alone (period 1),67.8
same,"AUCinf, geometric mean",[1]; SPN‐812 alone (period 1),67.9
same,"Cmax, geometric mean",[1]; SPN‐812 alone (period 1),3.4
same,delay of median Tmax after the combination compared with SPN‐812 alone,[1]; [9],≈ 3 hour
same,"AUC0‐t ratio, combination/SPN‐812 alone (relative bioavailability)",[1]; [10],88.75% and 88.8%
same,"AUCinf ratio, combination/SPN‐812 alone (relative bioavailability)",[1]; [10],88.77% and 88.8%
same,"Cmax ratio, combination/SPN‐812 alone (relative bioavailability)",[1]; [10],83.05% and 83.1%
same,decrease in AUC0‐t after the combination versus SPN‐812 alone,[1]; [11],12%
same,decrease in AUCinf after the combination versus SPN‐812 alone,[1]; [11],12%
same,decrease in Cmax after the combination versus SPN‐812 alone,[1]; [11],17%
"Fc1ccc([C@@H]2CCNC[C@H]2COc2ccc3c(c2)OCO3)cc1 [Paroxetine, paroxetine]",Cavg,[2]; [12],29.6 ± 15.7 ng/mL
same,"Cmin,ss",[2]; [12],22.3 ± 13.4 ng/mL
same,AUC,"[2]; human, plasma, oral, 20 mg",709 ± 377 ng·h/mL
same,Cmax,"[2]; human, plasma, oral, 20 mg",39 ± 19 ng/mL
same,Tmax,"[2]; human, plasma, oral, 20 mg",6 h
same,Abnormal dreams (treatment‐related),[3],0 n (%)
same,Any adverse event (treatment‐related),[3],3 (13.6%) n (%)
same,Decreased appetite (treatment‐related),[3],0 n (%)
same,Diarrhea (treatment‐related),[3],3 (13.6%) n (%)
same,Dysgeusia (treatment‐related),[3],0 n (%)
same,Palpitations (treatment‐related),[3],0 n (%)
same,Somnolence (treatment‐related),[3],0 n (%)
"CCOc1ccccc1OCC1CNCCO1 (stereo not drawn) [Viloxazine, viloxazine]",change (increase) in AUC / exposure with CYP2D6 inhibition by paroxetine,[1]; [9],< 35%
same,delay of median Tmax after the combination compared with SPN‐812 alone,[1]; [9],≈ 1 hour
same,increase in AUC0‐t after the combination versus SPN‐812 alone,[1]; [11],under 35%
same,increase in AUCinf after the combination versus SPN‐812 alone,[1]; [11],under 35%
same,increase in Cmax after the combination versus SPN‐812 alone,[1]; [11],16%
same,half-life,clinical; 700 mg,5.2 ± 2.3 h
same,AUC,"clinical; AUC0‐t, Combination (period 3): SPN‐812 700 mg + paroxetine 20 mg QD, mean ± SD",112000 ± 23900 ng·h/mL
same,IC50,"CYP1A2; read-out: CYP1A2 reversible inhibition IC50, reversible inhibition",0.269 µM
same,IC50,"CYP1A2; read-out: CYP1A2 time‐dependent inhibition IC50, after 30 minute preincubation with nicotinamide adenine dinucleotide phosphate",0.0436 µM
same,IC50,CYP2B6,184 µM
same,IC50,CYP2D6 [4],141 µM
same,IC50,CYP3A4/5,221 µM and 352 µM
same,IC50,CYP2C8,> 1010 µM
same,IC50,CYP2C9,> 1010 µM
same,IC50,CYP2C19,> 1010 µM
same,share of CYP2D6 in the formation of 5‐hydroxyviloxazine,CYP2D6 [5],< 50%
